We go through three molecules from patent publication US20090111697A1, “PROPIONIC ACID AS AN HERBICIDE” (Marrone Organic Innovations, priority 2007, published 2009).

Series [1] relates to Lactuca sativa (lettuce) seed. The series is described as follows: Germination of lettuce seeds in 96-well plate, dilution series. It counts as in vivo. The following applies: 11 days; for germination: 75 ul per well. As for the experimental part: The phytotoxic effects of propionic and formic acids were tested on germinating dicot seeds. A single seed of Lactuca sativa (lettuce) was placed in each well of a 96-well plate followed by a 75-ul aliquot of each solution in a stepwise (1:2) dilution series with DI water from 5% to 0%. DI water was used as a control. The plate was sealed with a plastic cover, and placed under greenhouse lights (12 hr light/dark cycle) for 11 days after which the germination at each concentration was recorded. See the results below.

Series [2] has as its system Poa annua (annual bluegrass). Nature of the series: Post-emergence spray test on annual bluegrass, 0.5-20%. The following applies: 2 mL spray, four days after treatment. It is filed as in vivo. As for the experimental part:
Pots with 6-cm diameter were filled with potting mix, and about thirty (30) seeds of Poa annua (annual bluegrass, representing a grass weed) were planted on the top. The seeds were germinated and the plants grown at optimum water content under growth lights with a 12-h light/dark period at room temperature until they were about 3 inches tall. To test the post-emergence effect of propionic acid, the plants were sprayed with 2 mL of water solutions containing increasing concentrations of propionic acid. The following concentrations (v/v %) were used: 0% (control), 0.5% 2.5%, 5%, 10%, and 20%. the plants were observed four days after the treatment.

The test system of series [3] is Lactuca sativa (lettuce) seeds. Nature of the series: Pre-emergence pot test, propionic acid in corn gluten meal granules, lettuce. It counts as in vivo. The following applies: one week. As for the experimental part:
(§1) To further test the inhibitory effect of propionic acid on germinating seeds, pots with 6-cm diameter were filled with 60 mL of silty clay loam soil passed through a 2-mm sieve, and five (5) seeds of either Lactuca sativa (lettuce, representing a broadleaf plant) or Poa annua (annual bluegrass, representing a grass weed) were planted on the top. A solid form of the composition containing corn gluten meal granules (1-2 mm diameter) soaked in 0%, 10%, 15% or 20% propionic acid solution and dried were placed on the top of the soil at rates 0.1, 0.25, and 0.5 g/pot. The pots were kept at optimum water content under growth lights with a 12-h light/dark period at room temperature, and the number of germinated seeds was counted after one week. The results were reported as a percent of weed seeds germinated relative to the control treatment with no corn gluten meal added.

For series [4], the system named is Seedlings of Lactuca sativa (lettuce). The series is described as follows: High-throughput 96-well post-emergence assay on lettuce seedlings. It counts as in vivo. As for the experimental part:
A high-throughput 96-well assay was used to test the efficacy of propionic acid as a post-emergence, non-selective herbicide. Seedlings of Lactuca sativa (lettuce) were grown in water agar in 96-well plates under continuous light. Propionic acid was added on the seedlings at a 2×-dilution series from 20% to 0%, and the minimum concentration needed for killing the seedling was recorded the next day. According to the results, propionic acid at a concentration of 0.156% was able to kill the lettuce seedling, whereas propionic acid at a concentration of 0.08% was not harmful for the plant.

Another series concerns Poa annua. The series is described as follows: Post-emergence minimum concentration study in peat pots, 2-10%. It counts as in vivo. The following applies: Poa annua in small peat pots, sprayed. An excerpt:
To further test the minimum concentration of propionic acid required to control Poa annua (as an example of a grass weed) another study was set up in small peat pots using concentrations 0% (control), 2%, 4%, 6%, 8% and 10% of propionic acid. According to the results, a concentration of 8-10% is needed for good control.

Series [5] deals with Poa annua (annual bluegrass) seeds. The series is described as follows: Pre-emergence pot test, propionic acid in corn gluten meal granules, annual bluegrass. The note with it: one week. It counts as in vivo. As for the experimental part:
as §1

Series [6] in a line: Solubility of hinokitiol in solvents. It counts as physicochemical. The note with it: ambient conditions. The source says:
The solubility of hinokitiol in proprionic acid was 60% w/w or 3 parts hinokitiol to 2 parts propionic acid by weight, under ambient conditions. Under the correct conditions the solubility of hinokitiol in propionic acid would exceed 3 parts hinokitiol to 2 parts propionic acid, by weight. Under ambient conditions, the maximum solubility of hinokitiol in ethanol is 50% w/w or 1 part hinokitiol to 1 part ethanol by weight.

Where [7] appears, read: granules soaked in 10% propionic acid, 0.1 g/pot.
[8] abbreviates: granules soaked in 10% propionic acid, 0.25 g/pot.
Where [9] appears, read: granules soaked in 10% propionic acid, 0.5 g/pot.
Setting [10] is: granules soaked in 15% propionic acid, 0.1 g/pot.
[11] abbreviates: granules soaked in 15% propionic acid, 0.25 g/pot.
Setting [12] is: granules soaked in 15% propionic acid, 0.5 g/pot.
[13] abbreviates: granules soaked in 20% propionic acid, 0.1 g/pot.
Setting [14] is: granules soaked in 20% propionic acid, 0.25 g/pot.
Where [15] appears, read: granules soaked in 20% propionic acid, 0.5 g/pot.

With `O=CO` [Formic Acid, reference compound], the germination result is “+” in series [1] (0.005% solution); “+ and −” in series [1] (0.01% solution); “+ and −” in series [1] (0.02% solution); “− and +” in series [1] (0.05% solution); “−” in series [1] (0.09% solution); “−” in series [1] (0.19% solution). For the same molecule, the germination entry in series [1] (0.36% solution), in series [1] (0.75% solution), in series [1] (1.25% solution), in series [1] (2.50% solution) and in series [1] (5.00% solution) was “−” throughout.

`CCC(=O)O` [Propionic acid]: the “herbicidal effect, visual observations” value was “no herbicidal effect” in series [2] (0.5% (v/v) in water); “symptoms of wilting, scorching and eventually, death” in series [2] (10% (v/v) in water); “symptoms of wilting, scorching and eventually, death” in series [2] (20% (v/v) in water). Moreover, the “germination rate (%) relative to untreated control” value amounted to 50% in series [3] (setting [7]); 75% in series [3] (setting [8]); 42% in series [3] (setting [9]); 83% in series [3] (setting [10]); 25% in series [3] (setting [11]); 42% in series [3] (setting [12]). Further, the “germination rate (%) relative to untreated control” value in series [3] (setting [13]) turned out to be 42%; in series [3] (setting [14]), 67%; in series [3] (setting [15]) it was 33%; in series [5] (setting [7]), 37%; in series [5] (setting [8]), 44%; in series [5] (setting [9]) it was 22%. In addition, the “germination rate (%) relative to untreated control” value is 44% in series [5] (setting [10]); 52% in series [5] (setting [11]); 30% in series [5] (setting [12]); 44% in series [5] (setting [13]); 37% in series [5] (setting [14]); 96% in series [5] (setting [15]). Moreover, in series [4] (concentration of 0.08%, next day), the “effect on the seedling” value is reported as “not harmful”. Moreover, the “minimum concentration needed for killing the seedling” value in series [4] (lettuce seedlings, recorded the next day) is given as 0.156%. In the series with Poa annua, the “concentration needed for good control” value was 8-10%. Moreover, the germination result in series [1] (0.005% solution) was “+”; in series [1] (0.01% solution) it was “+”; in series [1] (0.02% solution) it was “+ and −”; in series [1] (0.05% solution), “− and +”; in series [1] (0.09% solution), “−”; in series [1] (0.19% solution), “−”. The germination entry in series [1] (0.36% solution), in series [1] (0.75% solution), in series [1] (1.25% solution), in series [1] (2.50% solution) and in series [1] (5.00% solution) was “−” in each case. In addition, the “threshold value for complete inhibition of seed germination” value in series [1] (lettuce seed) worked out at 0.09%.

For the molecule `CC(C)c1cccc(=O)c(O)c1` [hinokitiol], in series [6], the “maximum solubility in ethanol” value came out at 50 % w/w and the “solubility in propionic acid” value was 60 % w/w.
